Source: ChEMBL document CHEMBL5537171, “Design, Synthesis, and Biological Evaluation of Potent and Selective PROTAC Degraders of Oncogenic KRASG12D” (J Med Chem, 2024)
Calls of active or inactive are those of the source. The rule behind the calls is not given here.

Key:
[1] = tested on: von Hippel-Lindau disease tumor suppressor/GTPase KRas (Homo sapiens), P01116+P40337 [G12D]; assay: PROTAC activity at VHL/KRAS G12D mutant in human ASPC1 cells assessed as induction of protein degradation at 1 uM pretreated with BafA1 followed by compound treatment for 6 hrs by Western blot analysis; format: cell-based
Chain of von Hippel-Lindau disease tumor suppressor/GTPase KRas (Homo sapiens), P01116+P40337 [G12D] (P01116 whole entry G12D): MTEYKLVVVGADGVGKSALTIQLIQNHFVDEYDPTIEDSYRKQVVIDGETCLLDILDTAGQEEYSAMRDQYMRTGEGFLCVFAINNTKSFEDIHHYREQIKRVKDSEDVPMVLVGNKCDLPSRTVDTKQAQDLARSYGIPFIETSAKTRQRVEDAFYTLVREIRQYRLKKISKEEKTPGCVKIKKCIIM
Chain of von Hippel-Lindau disease tumor suppressor/GTPase KRas (Homo sapiens), P01116+P40337 [G12D] (P40337 whole entry partner): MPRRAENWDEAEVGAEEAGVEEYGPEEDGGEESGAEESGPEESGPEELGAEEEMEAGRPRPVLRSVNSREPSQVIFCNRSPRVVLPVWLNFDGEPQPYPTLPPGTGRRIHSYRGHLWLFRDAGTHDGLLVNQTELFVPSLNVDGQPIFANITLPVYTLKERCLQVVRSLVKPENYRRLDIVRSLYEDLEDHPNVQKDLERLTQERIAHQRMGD

ASPC1 [2] = assay: Downregulation of DUSP4 level in human ASPC1 cells at 0.1 uM incubated for 6 hrs by DIA-based proteomic analysis; format: functional, cell-based
[3] = AUC (infinity) in BALB/c mouse at 10 mg/kg, sc by LC-MS/MS analysis; format: ADME, organism-based; settings: in vivo
[4] = tested on: von Hippel-Lindau disease tumor suppressor/GTPase KRas (Homo sapiens), P01116+P40337 [G12D]; assay: PROTAC activity at VHL/KRAS G12D mutant in human ASPC1 cells assessed as decrease in pERK level at 1 uM incubated for 6 hrs followed by compound washout measured upto 72 hrs by Western blot analysis; format: cell-based
[5] = tested on: von Hippel-Lindau disease tumor suppressor/GTPase KRas (Homo sapiens), P01116+P40337 [G12S]; assay: PROTAC activity at VHL/KRAS G12S mutant in human A549 cells assessed as induction of protein degradation at 0.1 uM incubated for 24 hrs by Western blot analysis; format: cell-based
[6] = tested on: von Hippel-Lindau disease tumor suppressor/GTPase KRas (Homo sapiens), P01116+P40337 [G12D]; assay: PROTAC activity at VHL/KRAS G12D mutant in human ASPC1 cells assessed as induction of protein degradation at 1 uM pretreated with MG-132 followed by compound treatment for 6 hrs by Western blot analysis; format: cell-based
[7] = tested on: von Hippel-Lindau disease tumor suppressor/GTPase KRas (Homo sapiens), P01116+P40337 [G12D]; assay: PROTAC activity at VHL/KRAS G12D mutant in human ASPC1 cells assessed as induction of protein degradation at 1 uM pretreated with (2S,4R)-1-((S)-2-acetamido-3,3-dimethylbutanoyl)-4-hydroxy-N-((S)-1-(4-(4-methylthiazol-5-yl)phenyl)ethyl)pyrrolidine-2-carboxamide followed by compound treatment for 6 hrs by Western blot analysis; format: cell-based
[8] = tested on: von Hippel-Lindau disease tumor suppressor/GTPase KRas (Homo sapiens), P01116+P40337 [G12D]; assay: In vivo PROTAC activity at VHL/KRAS G12D mutant in human ASPC1 cells xenografted in BALB/c nude mouse assessed as decrease in DUSP4 mRNA level at 50 mg/kg, sc measured for 24 hrs by RT-qPCR analysis; format: functional, organism-based
[9] = tested on: von Hippel-Lindau disease tumor suppressor/GTPase KRas (Homo sapiens), P01116+P40337 [G12D]; assay: PROTAC activity at VHL/KRAS G12D mutant in human ASPC1 cells assessed as induction of protein degradation at 0.1 uM incubated for 24 hrs by Western blot analysis relative to control; format: cell-based
[10] = tested on: von Hippel-Lindau disease tumor suppressor/GTPase KRas (Homo sapiens), P01116+P40337 [G12D]; assay: PROTAC activity at VHL/KRAS G12D mutant in human ASPC1 cells assessed as induction of protein degradation at 1 uM pretreated with chloroquine followed by compound treatment for 6 hrs by Western blot analysis; format: cell-based
ASPC1 [11] = assay: Downregulation of KRT5 level in human ASPC1 cells at 0.1 uM incubated for 6 hrs by DIA-based proteomic analysis; format: functional, cell-based
[12] = tested on: von Hippel-Lindau disease tumor suppressor/GTPase KRas (Homo sapiens), P01116+P40337 [G12D]; assay: In vivo PROTAC activity at VHL/KRAS G12D mutant in human ASPC1 cells xenografted in BALB/c nude mouse assessed as induction of protein degradation at 50 mg/kg, sc measured for >24 hrs; format: functional, organism-based
[13] = Cooperativity factor alpha, ratio of IC50 for His-tagged VHL/Elongin C/Elongin B (unknown origin) to IC50 for His-tagged VHL/Elongin C/Elongin B/KRAS (unknown origin)
[14] = tested on: von Hippel-Lindau disease tumor suppressor/GTPase KRas (Homo sapiens), P01116+P40337 [G12R]; assay: PROTAC activity at VHL/KRAS G12R mutant in human CAL-62 cells assessed as induction of protein degradation at 0.1 uM incubated for 24 hrs by Western blot analysis; format: cell-based
[15] = Cmax in BALB/c mouse at 10 mg/kg, sc by LC-MS/MS analysis; format: ADME, organism-based; settings: in vivo
[16] = tested on: von Hippel-Lindau disease tumor suppressor/GTPase KRas (Homo sapiens), P01116+P40337 [G12D]; assay: PROTAC activity at VHL/KRAS G12D mutant in human ASPC1 cells assessed as induction of protein degradation at 1 uM incubated for 6 hrs followed by compound washout measured after 72 hrs by Western blot analysis; format: cell-based
ASPC1 [17] = assay: Downregulation of KRT9 level in human ASPC1 cells at 0.1 uM incubated for 6 hrs by DIA-based proteomic analysis; format: functional, cell-based
[18] = Toxicity in BALB/c nude mouse xenografted with human ASPC1 cells assessed as notable toxic symptoms at 50 mg/kg, sc for 22 days; format: organism-based; settings: in vivo, 528 h, time 22 day
ASPC1 [19] = assay: Antiproliferative activity against human ASPC1 cells assessed as inhibition of cell viability incubated for 120 hrs of continuous treatment by Cell Titer Glo assay; format: functional, cell-based; settings: ASPC1, 120 h
[20] = tested on: von Hippel-Lindau disease tumor suppressor/GTPase KRas (Homo sapiens), P01116+P40337 [G12D]; assay: In vivo PROTAC activity at VHL/KRAS G12D mutant in human ASPC1 cells xenografted in BALB/c nude mouse assessed as induction of protein degradation at 50 mg/kg, sc measured for 3 to 72 hrs by Western blot analysis; format: functional, organism-based; settings: time 3-72 hrs
ASPC1 [21] = assay: Downregulation of KRT14 level in human ASPC1 cells at 0.1 uM incubated for 6 hrs by DIA-based proteomic analysis; format: functional, cell-based
ASPC1 [22] = assay: Downregulation of DUSP4 mRNA level in human ASPC1 cells at 0.1 to 1 uM incubated for 6 hrs by RT-qPCR analysis; format: functional, cell-based; settings: dose 0.1-1 µM
[23] = Drug uptake in human ASPC1 cells at 10 uM incubated for 1 hr by MS analysis; format: ADME, cell-based; settings: aspc1, 1 h
[24] = Competitive binding affinity to His-tagged VHL/Elongin C/Elongin B/KRAS G12D mutant (unknown origin) by FP assay; parameters: species or system Homo sapiens
[25] = tested on: von Hippel-Lindau disease tumor suppressor/GTPase KRas (Homo sapiens), P01116+P40337 [G12D]; assay: PROTAC activity at VHL/KRAS G12D mutant in human ASPC1 cells assessed as induction of protein degradation incubated for 24 hrs by Western blot analysis relative to control; format: cell-based
[26] = tested on: von Hippel-Lindau disease tumor suppressor/GTPase KRas (Homo sapiens), P01116+P40337 [G12D]; assay: PROTAC activity at VHL/KRAS G12D mutant in human ASPC1 cells assessed as induction of protein degradation at 1 uM pretreated with 4-(4-((1R,5S)-3,8-diazabicyclo[3.2.1]octan-3-yl)-8-fluoro-2-(((S)-1-methylpyrrolidin-2-yl)methoxy)pyrido[4,3-d]pyrimidin-7-yl)-5-ethyl-6-fluoronaphthalen-2-ol followed by compound treatment for 6 hrs by Western blot analysis; format: cell-based
[27] = tested on: von Hippel-Lindau disease tumor suppressor/GTPase KRas (Homo sapiens), P01116+P40337 [G12D]; assay: PROTAC activity at VHL/KRAS G12D mutant in human ASPC1 cells assessed as decrease in pERK level at 1 uM incubated upto 24 hrs by Western blot analysis; format: cell-based
[28] = molecular target: von Hippel-Lindau disease tumor suppressor/GTPase KRas (Homo sapiens, UniProt P01116+P40337, G12D); assay: PROTAC activity at VHL/KRAS G12D mutant in human AGS cells assessed as induction of protein degradation incubated for 24 hrs by Western blot analysis; format: cell-based
Chain of von Hippel-Lindau disease tumor suppressor/GTPase KRas (P01116 whole entry G12D, stated change not applied): as the sequence (P01116 whole entry G12D) above
Chain of von Hippel-Lindau disease tumor suppressor/GTPase KRas (P40337 whole entry, stated change not applied): as the sequence (P40337 whole entry partner) above

SNU1 = assay: Antiproliferative activity against human SNU1 cells harboring KRAS G12D mutant assessed as inhibition of cell viability incubated for 5 days by Cell Titer Glo assay; format: functional, cell-based; settings: SNU1, 120 h
[29] = Tmax in BALB/c mouse at 10 mg/kg, sc by LC-MS/MS analysis; format: ADME, organism-based; settings: in vivo
Homo sapiens = species: Homo sapiens; assay: Binding affinity to His-tagged VHL/Elongin C/Elongin B/GST-tagged KRAS G12D mutant (unknown origin) incubated for 1 hr by HTRF assay

Question: Which results are given for CCc1c(F)ccc2cc(O)cc(-c3ncc4c(N5C[C@H]6CC[C@@H](C5)N6)nc(OC[C@@H]5CCCN5CCCCOCC(=O)N[C@H](C(=O)N5C[C@H](O)C[C@H]5C(=O)N[C@@H](C)c5ccc(-c6scnc6C)cc5)C(C)(C)C)nc4c3F)c12?
Answer: Activity [1]: Active; Activity (ASPC1 [2]): Active; AUC(0-inf) [3]: 5.06 µg·h/mL; Activity [4]: Active; Activity [5]: inactive; Activity [6]: inactive; Activity [7]: inactive; Activity [8]: Active; Activity [9]: 75.8%; Activity [10]: Active; Activity (ASPC1 [11]): Active; Activity [12]: Active; Ratio IC50 [13]: 15.9; Activity [14]: inactive; Cmax [15]: 2.08 µg/mL; Activity [16]: Active; Activity (ASPC1 [17]): Active; Activity [18]: Non-Toxic; IC50 (ASPC1 [19]): 0.0611 µM; Activity [20]: Active; Activity (ASPC1 [21]): Active; Activity (ASPC1 [22]): Active; Drug uptake [23]: Active; IC50 [24]: 0.0188 µM; Emax [25]: 98.9%; Activity [26]: inactive; Activity [27]: Active; DC50 [28]: 0.00749 µM; IC50 (SNU1): 0.0435 µM; Tmax [29]: 15 min; Activity (Homo sapiens): Active
